# According to patent publication US20080188564A1, “Insecticidal and Nematicidal Compositions and Methods of Use” (priority 2004, published 2008):
# Key:
# C. elegans = experiment: Toxicity of DIDS on C. elegans (96 well plate); format: in vivo, Caenorhabditis elegans
# Method: (§1) We determined the toxicity of DIDS to infective juveniles of M. incognita and H. bacteriophora. Infective juveniles were assayed because they represent the only free-living life stage for both nematode species; adults live within their respective hosts and are not amenable to this type of test. Further, the infective juvenile of M. incognita would likely be the target of a nematicide based upon this material. The tests were conducted in either 35 mm Petri dishes or 96 well plates, holding the test material dissolved in DMSO and dispersed into tap water. Each dish was considered a replicate and contained 10-30 nematodes of either species. Each well of the 96-well plates had one nematode.
# (§2) To further characterize the nematode-inhibiting effect of a stilbene compound (DIDS), experiments were performed as described above, using a 96 well plate and 10-30 nematodes per well, and using the plant parasite M. incognita and the free-living C. elegans. The results are depicted in Tables 1 and 2.
# M. incognita = experiment: Toxicity of DIDS on M. incognita infective juveniles; format: in vivo, Meloidogyne incognita
# Method: Meloidogyne incognita cultures were maintained on potted tomatoes (c.v. Rutgers) in a greenhouse. Infective juvenile nematodes for analysis were extracted as eggs from infected tomato roots by shaking the roots in 1% bleach for 2 minutes. Eggs were captured in a 500-mesh sieve, rinsed in water and placed in Baerman funnels. When the eggs hatched, the juveniles moved downward in the funnels, and hatched infective juveniles were collected after 48 hours.
# as §1
# DIDS-H.b.=DIDS-exposed H. bacteriophora; DIDS-M.i.=DIDS-exposed Meloidogyne incognita. DIDS was dissolved in DMSO, and DMSO-M.i.=DMSO-exposed Meloidogyne incognita. Average percentage mortality for each treatment group was calculated from 5 replicates containing 10 nematodes each. Bars are means±SEM.
# as §2
# Caenorhabditis elegans = conditions: at 100 ug/ml; cited from earlier work
# Meloidogyne incognita = conditions: at 100 ug/ml; cited from earlier work
# H. megidis = conditions: concentrations up to 200 ug/ml; cited from earlier work
# [1] = tested on: voltage-gated chloride channels; conditions: Torpedo membranes vs rat brain membranes; cited from earlier work
structure (smiles),measurement,setting,value
"O=S(=O)(O)c1cc(N=C=S)ccc1/C=C/c1ccc(N=C=S)cc1S(=O)(=O)O [DIDS, trans-4,4′-diisothiocyanatostilbene-2,2′-disulfonic acid]",LC50,C. elegans; 1-day (24 hr),196.13 ppm
same,Slope,C. elegans; 1-day (24 hr),1.43 ± 0.35
same,LC50,C. elegans; 2-day (48 hr),83.70 ppm
same,Slope,C. elegans; 2-day (48 hr),1.45 ± 0.29
same,LC50,C. elegans; 3-day (72 hr),31.53 ppm
same,Slope,C. elegans; 3-day (72 hr),1.87 ± 0.28
same,LC50,C. elegans; 5-day (120 hr),15.69 ppm
same,Slope,C. elegans; 5-day (120 hr),2.86 ± 0.36
same,LC50,C. elegans; 7-day (168 hr),10.67 ppm
same,Slope,C. elegans; 7-day (168 hr),4.57 ± 0.71
same,time until toxic,C. elegans; DIDS at 10 ppm,2 days
same,time to paralysis,C. elegans; free-living nematode,2 days
same,LC50,M. incognita; 1-day (24 hr),160.03 ppm
same,Slope,M. incognita; 1-day (24 hr),1.77 ± 0.50
same,LC50,M. incognita; 2-day (48 hr),97.91 ppm
same,Slope,M. incognita; 2-day (48 hr),1.52 ± 0.30
same,LC50,M. incognita; 3-day (72 hr),37.84 ppm
same,Slope,M. incognita; 3-day (72 hr),1.83 ± 0.30
same,LC50,M. incognita; 5-day (120 hr),17.07 ppm
same,Slope,M. incognita; 5-day (120 hr),2.75 ± 0.36
same,LC50,M. incognita; 7-day (168 hr),11.58 ppm
same,Slope,M. incognita; 7-day (168 hr),4.04 ± 0.59
same,toxicity (mortality) to nematodes,"M. incognita; 24 hr, 100 ug/ml (200 uM), in DMSO/tap water",paralytic/lethal
same,time until toxic,M. incognita; DIDS at 10 ppm,2 days
same,time to paralysis,M. incognita; plant parasite nematode,2 days
"CC(C)c1c(O)cc(C=Cc2ccccc2)cc1O [DST, 3,5-dihydroxy-4-isopropylstilbene]",24 hr lethality,Caenorhabditis elegans,100%
same,24 hr lethality,Meloidogyne incognita,100%
same,sensitivity to DST,H. megidis,completely insensitive
Cl[C@H]1[C@H](Cl)[C@@H](Cl)[C@@H](Cl)[C@H](Cl)[C@H]1Cl [lindane],"potency as inhibitor of [35S]TBPS binding, Torpedo membranes relative to rat brain",[1],about 4 fold
